“And” between values parts separate entries of the source, which are not always exact repeats. Equal entries are not always repeated. Toxic doses and inconclusive results are not listed.

The test has as its system BDF1 mice, P388 leukemia ip, median survival T/C. Nature of the test: NCI In Vivo Anticancer Drug Screen. Data for tumor model P388 Leukemia (intraperitoneal) in B6D2F1 (BDF1) mice. The following applies: endpoint: median survival time, higher = longer survival. In a few lines: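 T/C = treated-group survival ÷ vehicle-control survival; tumour transplanted into mice before dosing.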

Where [1] appears, read: dose: 25.0 mg/kg/injection, schedule: Q01DX009 (ip), vehicle: saline with Tween-80.
[2] abbreviates: dose: 50.0 mg/kg/injection, schedule: Q01DX009 (ip), vehicle: saline with Tween-80.
Setting [3] is: dose: 100.0 mg/kg/injection, schedule: Q01DX009 (ip), vehicle: saline with Tween-80.
The mark [4] stands for this setting: dose: 200.0 mg/kg/injection, schedule: Q01DX009 (ip), vehicle: saline with Tween-80.
Setting [5] is: dose: 200.0 mg/kg/injection, schedule: Q04DX003 (ip), vehicle: saline with Tween-80.
[6] abbreviates: dose: 400.0 mg/kg/injection, schedule: Q04DX003 (ip), vehicle: saline with Tween-80.

With `Clc1c(CI)ccc(CI)c1Cl`, the T/C is, setting by setting: (dose: 11.0 mg/kg/injection, schedule: Q04DX003 (ip), vehicle: Klucel (hydroxypropylcellulose) (HPC)) 100 % of control; (dose: 12.5 mg/kg/injection, schedule: Q01DX009 (ip), vehicle: saline sonified) 113 % of control; (dose: 16.5 mg/kg/injection, schedule: Q01DX009 (ip), vehicle: saline with Tween-80) 90 % of control; (dose: 16.5 mg/kg/injection, schedule: Q04DX003 (ip), vehicle: Klucel (hydroxypropylcellulose) (HPC)) 100 % of control; (dose: 16.5 mg/kg/injection, schedule: Q04DX003 (ip), vehicle: saline sonified) 122 % of control; under setting [1], 90 % of control. The T/C runs as follows: (dose: 25.0 mg/kg/injection, schedule: Q04DX003 (ip), vehicle: Klucel (hydroxypropylcellulose) (HPC)) 109 % of control; (dose: 37.5 mg/kg/injection, schedule: Q04DX003 (ip), vehicle: Klucel (hydroxypropylcellulose) (HPC)) 109 % of control; (dose: 50.0 mg/kg/injection, schedule: Q01DX009 (ip), vehicle: saline sonified) 118 % of control; (dose: 50.0 mg/kg/injection, schedule: Q04DX003 (ip), vehicle: Klucel (hydroxypropylcellulose) (HPC)) 110 % of control; (dose: 100.0 mg/kg/injection, schedule: Q04DX003 (ip), vehicle: Klucel (hydroxypropylcellulose) (HPC)) 120 % of control.
Turning to `ClC(Cl)=C1OCCO1`, the T/C is 104 % of control under setting [2], 98 % of control under setting [3] and 100 % of control under setting [4].
As to `C=C1C(=O)OC2C3OC(C)(CCC(OC(C)=O)C3COC(C)=O)CC(OC(=O)/C(=C\C)COC(C)=O)C12` (stereo not drawn), the T/C is 106 % of control (dose: 25.0 mg/kg/injection, schedule: Q01DX009 (ip), vehicle: Klucel (hydroxypropylcellulose) (HPC)); 106 % of control (dose: 50.0 mg/kg/injection, schedule: Q01DX009 (ip), vehicle: Klucel (hydroxypropylcellulose) (HPC)); 118 % of control (dose: 100.0 mg/kg/injection, schedule: Q01DX009 (ip), vehicle: Klucel (hydroxypropylcellulose) (HPC)).
On to `O=NN(CCCl)C(=O)Nc1ccccc1`, for which the T/C is, setting by setting: (dose: 8.0 mg/kg/injection, schedule: Q04DX003 (ip), vehicle: saline with Tween-80) 233 % of control; (dose: 8.25 mg/kg/injection, schedule: Q04DX003 (ip), vehicle: saline with Tween-80) 231 % of control; (dose: 12.0 mg/kg/injection, schedule: Q04DX003 (ip), vehicle: saline with Tween-80) 311 % of control; (dose: 12.5 mg/kg/injection, schedule: Q04DX003 (ip), vehicle: saline with Tween-80) 272 % of control; (dose: 18.0 mg/kg/injection, schedule: Q04DX003 (ip), vehicle: saline with Tween-80) 261 % of control; (dose: 18.75 mg/kg/injection, schedule: Q04DX003 (ip), vehicle: saline with Tween-80) 104 % of control.
As to `CC(=N\[O-])/C(C)=N/O.CC(=N\[O-])/C(C)=N/O.[Cl-].[Cl-].[Rh+3].c1ccncc1`, the T/C reads like this: (dose: 75.0 mg/kg/injection, schedule: Q01DX009 (ip), vehicle: water) 110 % of control; (dose: 150.0 mg/kg/injection, schedule: Q01DX009 (ip), vehicle: water) 110 % of control.
Turning to `Cc1ccc(C(=O)/C=C\c2ccccc2)cc1`, the T/C is 104 % of control under setting [3]; 103 % of control (dose: 100.0 mg/kg/injection, schedule: Q04DX003 (ip), vehicle: saline with Tween-80); 104 % of control under setting [4]; 103 % of control under setting [5]; 104 % of control (dose: 400.0 mg/kg/injection, schedule: Q01DX009 (ip), vehicle: saline with Tween-80); 103 % of control under setting [6].
Regarding `CCOC(=O)c1c(NC(=O)CCl)ssc1=S`, the T/C is, setting by setting: (dose: 0.78 mg/kg/injection, schedule: Q01DX009 (ip), vehicle: saline with Tween-80) 116 % of control; (dose: 1.56 mg/kg/injection, schedule: Q01DX009 (ip), vehicle: saline with Tween-80) 116 % of control; (dose: 3.12 mg/kg/injection, schedule: Q01DX009 (ip), vehicle: saline with Tween-80) 116 % of control; (dose: 6.25 mg/kg/injection, schedule: Q01DX009 (ip), vehicle: saline with Tween-80) 116 % of control; (dose: 12.5 mg/kg/injection, schedule: Q01DX009 (ip), vehicle: saline with Tween-80) 114 % of control; under setting [1], 109 % of control. The T/C reads like this: under setting [2], 111 % of control; (dose: 50.0 mg/kg/injection, schedule: Q04DX003 (ip), vehicle: saline with Tween-80) 102 % of control; under setting [5], 100 % of control; under setting [6], 116 % of control.
Regarding `CC(C)C(NC(=O)CN)C(=O)OCCCCS(=O)(=O)c1ccc(CO)cc1` (stereo not drawn), the T/C by setting is: (dose: 50.0 mg/kg/injection, schedule: Q01DX005 (ip), vehicle: suspension in saline) 100 % of control; (dose: 100.0 mg/kg/injection, schedule: Q01DX005 (ip), vehicle: suspension in saline) 100 % of control; (dose: 200.0 mg/kg/injection, schedule: Q01DX005 (ip), vehicle: suspension in saline) 95 % of control.
For `CC(c1ccccc1)[n+]1ccccc1C1OCCO1` (stereo not drawn), the T/C reads like this: (dose: 6.25 mg/kg/injection, schedule: Q04DX003 (ip), vehicle: saline) 100 % of control; (dose: 12.5 mg/kg/injection, schedule: Q04DX003 (ip), vehicle: saline) 97 % of control.
Turning to `CC[N+](CC)(CC)CCCCCCCC[N+](CC)(CC)CC`, the T/C (dose: 0.25 mg/kg/injection, schedule: Q01DX009 (ip), vehicle: water) is 115 % of control; the T/C (dose: 0.5 mg/kg/injection, schedule: Q01DX009 (ip), vehicle: water) was 92 % of control; the T/C (dose: 0.5 mg/kg/injection, schedule: Q04DX003 (ip), vehicle: water) was 100 % of control; the T/C (dose: 0.78 mg/kg/injection, schedule: Q04DX003 (ip), vehicle: water) was 112 % of control; the T/C (dose: 1.0 mg/kg/injection, schedule: Q01DX009 (ip), vehicle: water) was 105 % of control and 106 % of control; the T/C (dose: 1.0 mg/kg/injection, schedule: Q04DX003 (ip), vehicle: water) was 88 % of control. For the same molecule, the T/C runs as follows: (dose: 1.56 mg/kg/injection, schedule: Q04DX003 (ip), vehicle: water) 112 % of control; (dose: 2.0 mg/kg/injection, schedule: Q01DX009 (ip), vehicle: water) 106 % of control; (dose: 3.12 mg/kg/injection, schedule: Q04DX003 (ip), vehicle: water) 112 % of control.
As for `CCCCC(C)(CN(C)C)C(=O)/C=C/c1ccc(Cl)c(Cl)c1` (stereo not drawn), the T/C is, setting by setting: (dose: 6.25 mg/kg/injection, schedule: Q01DX009 (ip), vehicle: saline) 112 % of control; (dose: 12.5 mg/kg/injection, schedule: Q01DX009 (ip), vehicle: saline) 120 % of control; (dose: 25.0 mg/kg/injection, schedule: Q01DX009 (ip), vehicle: saline) 118 % of control.
Regarding `Cc1ccc2oc(=O)c(C3=CC(=O)C(SC(=N)N)C=C3O)c(O)c2c1` (stereo not drawn), the T/C (dose: 50.0 mg/kg/injection, schedule: Q01DX005 (ip), vehicle: Klucel (hydroxypropylcellulose) (HPC)) is 95 % of control; the T/C (dose: 100.0 mg/kg/injection, schedule: Q01DX005 (ip), vehicle: Klucel (hydroxypropylcellulose) (HPC)) is 97 % of control; the T/C (dose: 200.0 mg/kg/injection, schedule: Q01DX005 (ip), vehicle: Klucel (hydroxypropylcellulose) (HPC)) is 91 % of control.
Consider `CCCc1c(N)c2ccccc2c2ccccc12`, for which the T/C (dose: 100.0 mg/kg/injection, schedule: Q04DX002 (ip), vehicle: saline with Tween-80) is 86 % of control; the T/C (dose: 200.0 mg/kg/injection, schedule: Q04DX002 (ip), vehicle: saline with Tween-80) was 96 % of control; the T/C (dose: 400.0 mg/kg/injection, schedule: Q04DX002 (ip), vehicle: saline with Tween-80) is 102 % of control.
With `CCOC(=O)C1=C(C)NC(C)=C(C(=O)OCC)C1`, the T/C was 90 % of control (dose: 100.0 mg/kg/injection, schedule: Q01DX001 (ip), vehicle: saline with Tween-80); 95 % of control (dose: 200.0 mg/kg/injection, schedule: Q01DX001 (ip), vehicle: saline with Tween-80); 100 % of control (dose: 400.0 mg/kg/injection, schedule: Q01DX001 (ip), vehicle: saline with Tween-80).
Regarding `O=C/C=C/c1cccc([N+](=O)[O-])c1`, the T/C by setting is: under setting [1], 110 % of control; under setting [2], 115 % of control; under setting [3], 119 % of control.
On to `O=C(O)C1CCC=CCC1`, for which the T/C is, setting by setting: (dose: 50.0 mg/kg/injection, schedule: Q04DX003 (ip), vehicle: other) 100 % of control; (dose: 100.0 mg/kg/injection, schedule: Q04DX003 (ip), vehicle: other) 100 % of control; (dose: 200.0 mg/kg/injection, schedule: Q04DX003 (ip), vehicle: other) 109 % of control.

The values above are taken from PubChem BioAssay AID328 (DTP/NCI, 2004).
